Consider 36 compounds from patent US7160903B2, “Sulfonylaminocarboxylic acids” (Sanofi-Aventis Deutschland GmbH, priority 1997, dated 2007).

SMILES strings stand for the structures. Some results are limits rather than exact numbers.

The target of series [1] is T1, neutrophil collagenase (MMP-8) (Homo sapiens, UniProt P22894).
T1 construct: enzymatic activity of the catalytic domains of human stromelysin and of neutrophil collagenase; made in house
Nature of the series: Enzymatic activity of the catalytic domain of neutrophil collagenase (fluorogenic substrate). It counts as biochemical. As to conditions: pH=6.5, 15 min preincubation, fluorescence 328 nm (ex)/393 nm (em), read-out: Neutr. collagenase IC50. As to the method:
(§1) Preparation and determination of the enzymatic activity of the catalytic domains of human stromelysin and of neutrophil collagenase:
(§2) The enzymes stromelysin (MMP-3) and neutrophil collagenase (MMP-8) were prepared according to Ye et al. (Biochemistry; 31 (1992) pages 11231–11235). To measure the enzyme activity or the enzyme inhibitor action, 70 μl of buffer solution and 10 μl of enzyme solution are incubated for 15 min with 10 μl of a 10% strength (v/v) aqueous dimethyl sulfoxide solution, which optionally contains the enzyme inhibitor. After addition of 10 μl of a 10% strength (v/v) aqueous dimethyl sulfoxide solution which contains 1 mmol/L of the substrate, the enzyme reaction is monitored by fluorescence spectroscopy (328 nm (ex)/393 nm(em)). The enzyme activity is shown as the extinction increase/min. The IC50 values listed in Table 2 are determined as those inhibitor concentrations which in each case led to a 50% inhibition of the enzyme.
(§3) The buffer solution contains 0.05% Brij (Sigma, Deisenhofen, Germany) and also 0.1 mol/L Tris/HCl, 0.1 mol/L NaCl, 0.01 mol/L CaCl2 and 0.1 mol/L piperazine-N,N′-bis[2-ethanesulfonic acid] (pH=6.5). The enzyme solution contains 5 μg/ml of one of the enzyme domains prepared according to Ye et al. The substrate solution contains 1 mmol/L of the fluorogenic substrate (7-methoxycoumarin-4-yl)acetyl-Pro-Leu-Gly-Leu-3-(2′,4′-dinitrophenyl)-L-2,3-diaminopropionyl-Ala-Arg-NH2 (Bachem, Heidelberg, Germany).

A further series deals with T2, stromelysin (MMP-3) (Homo sapiens, UniProt P08254).
T2 construct: enzymatic activity of the catalytic domains of human stromelysin and of neutrophil collagenase; made in house
T2 sequence (P08254 100-272 limits assumed): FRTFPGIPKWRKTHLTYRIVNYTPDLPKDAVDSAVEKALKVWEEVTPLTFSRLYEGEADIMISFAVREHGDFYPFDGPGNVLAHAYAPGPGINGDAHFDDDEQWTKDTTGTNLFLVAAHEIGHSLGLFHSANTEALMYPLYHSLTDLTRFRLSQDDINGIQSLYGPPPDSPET
Nature of the series: Enzymatic activity of the catalytic domain of human stromelysin (fluorogenic substrate). It counts as biochemical. The following applies: pH=6.5, 15 min preincubation, fluorescence 328 nm (ex)/393 nm (em). As to the method: as §1, §2, §3

T1 sequence (P22894 100-262 limits assumed): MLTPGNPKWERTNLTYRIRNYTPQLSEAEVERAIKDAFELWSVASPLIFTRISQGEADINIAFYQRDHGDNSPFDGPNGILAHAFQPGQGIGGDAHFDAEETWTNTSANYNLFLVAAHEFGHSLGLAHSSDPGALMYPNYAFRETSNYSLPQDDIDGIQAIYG

By melting point is commonly meant the temperature of the solid-liquid transition. What is called IC50 is the concentration that gives 50% inhibition. In turn, `O=C(CCC(NS(=O)(=O)c1ccc(-c2ccc(Cl)cc2)cc1)C(=O)O)Nc1ccccc1` (racemic) [Example 69] gave a melting point of 238 to 239 °C. Also, in series [1], the IC50 was determined as 4 nM. For the same compound, the IC50 on stromelysin (MMP-3) is 10 nM.
`O=C(CC[C@H](NS(=O)(=O)c1ccc(-c2ccccc2)cc1)C(=O)O)Nc1ccccc1Cl` [Example 74] displayed a melting point of 187.5 to 188.5 °C. Further, in series [1], the IC50 came out at 10 nM. The compound further gave an IC50 against stromelysin (MMP-3) of 100 nM.
`COc1ccc(CC(NS(=O)(=O)c2ccc(-c3ccc(N(C)C)cc3)cc2)C(=O)O)cc1OC` (racemic) [Example 65]: the melting point was > 230 °C (dec.). In series [1], the IC50 was 3 nM. Further, the IC50 on stromelysin (MMP-3) is 100 nM.
In turn, `O=C(O)[C@H](CO)NS(=O)(=O)c1ccc(Oc2ccccc2)cc1` [Example 8] came in with a melting point of 202 to 203 °C. Besides, the IC50 in series [1] amounted to 10 nM. The compound also registered an IC50 against stromelysin (MMP-3) of 300 nM.
Take `CC(=O)Nc1ccc(NC(=O)CC[C@H](NS(=O)(=O)c2ccc(-c3ccccc3)cc2)C(=O)O)cc1` [Example 99]: the melting point is > 230 °C (dec.). Further, the IC50 in series [1] turned out to be 50 nM. The same compound returned an IC50 at stromelysin (MMP-3) of 700 nM.
As to `O=C(O)CNS(=O)(=O)c1ccc(Oc2ccc(Cl)cc2)cc1` [Example 3], the melting point fell in the range of 162 to 164 °C. Further, in series [1], the IC50 was 200 nM. Besides, the IC50 on stromelysin (MMP-3) was 20000 nM.
The like results for `O=C(CC[C@H](NS(=O)(=O)c1ccc(-c2ccc(Cl)cc2)cc1)C(=O)O)Nc1ccc(F)cc1` [Example 87] were, in that order, > 245 °C (dec.), 5 nM and 30 nM.
`O=C(O)CCCC(NS(=O)(=O)c1ccc(-c2ccccc2)cc1)C(=O)O` (racemic) [Example 82] showed a melting point of 171.5 to 172 °C. For the same compound, in series [1], the IC50 is 10 nM. The compound also returned an IC50 against stromelysin (MMP-3) of 100 nM.
For the compound `O=C(O)[C@@H](Cc1cccs1)NS(=O)(=O)c1ccc(-c2ccc(Cl)cc2)cc1` [Example 27], the melting point was > 200 °C (dec.). Also, in series [1], the IC50 was 10 nM. Also, at stromelysin (MMP-3), the half-inhibitory concentration (IC50) stood at 200 nM.
In turn, `COC(=O)c1ccc(NC(=O)CC[C@H](NS(=O)(=O)c2ccc(-c3ccccc3)cc2)C(=O)O)cc1` [Example 84] showed a melting point of 245 to 245.5 °C. Further, the IC50 in series [1] is 2 nM. Also, 5000 nM corresponded to half-maximal inhibition at stromelysin (MMP-3) (IC50).
For `O=C(CC[C@H](NS(=O)(=O)c1ccc(-c2ccccc2)cc1)C(=O)O)Nc1ccc(C(F)(F)F)cc1` [Example 85], the melting point was determined as 265 °C. Also, the IC50 in series [1] stood at 30 nM. For the same compound, on stromelysin (MMP-3), the IC50 was 3000 nM.
Regarding `O=C(CC[C@H](NS(=O)(=O)c1ccc(-c2ccc(N3CCCC3)cc2)cc1)C(=O)O)Nc1ccc(F)cc1` [Example 90], the melting point was > 245 °C (dec.). Besides, the IC50 in series [1] is 2 nM. At stromelysin (MMP-3), the 50% inhibitory concentration (IC50) is 10 nM.
`O=C(O)[C@@H](Cc1ccccc1)NS(=O)(=O)c1ccc(-c2ccc(C(F)(F)F)cc2)cc1` [Example 20] came in with a melting point of 159 to 162 °C. Further, the IC50 in series [1] came out at 20 nM. In addition, the IC50 against stromelysin (MMP-3) worked out at 400 nM.
Turning to `O=C(CC[C@H](NS(=O)(=O)c1ccc(-c2ccccc2)cc1)C(=O)O)Nc1ccncc1` [Example 97], the melting point was > 290 °C (dec.). Further, the IC50 in series [1] was 30 nM. Moreover, half-maximal inhibition against stromelysin (MMP-3) (IC50) required 1000 nM.
`CSCC[C@H](NC(=O)CC[C@H](NS(=O)(=O)c1ccc(-c2ccc(N(C)C)cc2)cc1)C(=O)O)C(=O)O` [Example 62] came in with a melting point of 121 °C. The IC50 in series [1] came to 2 nM. This compound displayed an IC50 at stromelysin (MMP-3) of 7 nM.
On the same counts, the results for `O=C(CC[C@H](NS(=O)(=O)c1ccc(-c2ccc(N3CCCC3)cc2)cc1)C(=O)O)Nc1ccccc1` [Example 80] are > 228 °C (dec.), 2 nM and 7 nM.
As to `CN(C)c1ccc(-c2ccc(S(=O)(=O)N[C@@H](CCC(=O)Nc3ccccc3)C(=O)O)cc2)cc1` [Example 81], the melting point is 240.5 to 241.5 °C (dec.). In addition, in series [1], the IC50 was 2 nM. On stromelysin (MMP-3), this compound registered an IC50 of 10 nM.
`CSCC[C@H](NC(=O)CC[C@H](NS(=O)(=O)c1ccc(-c2ccccc2)cc1)C(=O)O)C(=O)O` [Example 58] showed a melting point of 159 to 161 °C. Moreover, the half-maximal inhibitory concentration (IC50) in series [1] amounted to 6 nM. The half-inhibitory concentration (IC50) on stromelysin (MMP-3) is 40 nM.
On to `O=C(O)C1CCCCN1S(=O)(=O)c1ccc(-n2nccn2)cc1` (racemic) [Example 63], for which the melting point is 195 to 196 °C. For the same compound, the IC50 in series [1] came to 600 nM. Further, on stromelysin (MMP-3), the IC50 amounted to 3000 nM.
Take `O=C(O)[C@@H](CCO)NS(=O)(=O)c1ccc(Oc2ccccc2)cc1` (racemic) [Example 1, N-(Phenoxybenzenesulfonyl) homoserine]: the melting point came out at 134 °C. In addition, the IC50 in series [1] worked out at 10 nM. Besides, on stromelysin (MMP-3), half-maximal inhibition (IC50) was put at 400 nM.
Compound `CN(C)c1ccc(-c2ccc(S(=O)(=O)N[C@H](Cc3c[nH]c4ccccc34)C(=O)O)cc2)cc1` [Example 66] displayed a melting point of 258 to 260 °C. Besides, in series [1], the IC50 amounted to 2 nM. Further, the IC50 at stromelysin (MMP-3) worked out at 20 nM.
As to `CC(C)C[C@H](NC(=O)CC[C@H](NS(=O)(=O)c1ccc(-c2ccccc2)cc1)C(=O)O)C(=O)O` [Example 56], the melting point fell in the range of 93 to 95 °C. Further, in series [1], the IC50 was determined as 5 nM. Also, the IC50 against stromelysin (MMP-3) came to 30 nM.
`CNC(=O)c1ccc(NC(=O)CC[C@H](NS(=O)(=O)c2ccc(-c3ccccc3)cc2)C(=O)O)cc1` [Example 83] showed a melting point of 250 to 250.5 °C. Besides, the IC50 in series [1] was determined as 20 nM. Inhibition against stromelysin (MMP-3) was half-maximal at 1000 nM (IC50).
Turning to `O=C(O)CC[C@H](NS(=O)(=O)c1ccc(-c2ccccc2)cc1)C(=O)O` [Example 60], the melting point was 145 to 146 °C. In addition, the IC50 in series [1] amounted to 20 nM. Besides, inhibition against stromelysin (MMP-3) was half-maximal at 600 nM (IC50).
On the same counts, the results for `O=C(CC[C@H](NS(=O)(=O)c1ccc(-c2ccccc2)cc1)C(=O)O)Nc1ccc([N+](=O)[O-])cc1` [Example 75] are 232 to 233 °C, 20 nM and 300 nM.
On the same counts, the results for `CCN(C(=O)CC[C@H](NS(=O)(=O)c1ccc(-c2ccccc2)cc1)C(=O)O)c1ccccc1` [Example 98] are > 155 °C (dec.), 30 nM and 400 nM.
The like results for `O=C(CC[C@H](NS(=O)(=O)c1ccc(-c2ccccc2)cc1)C(=O)O)Nc1ccc(F)cc1` [Example 91] were, in that order, > 258 °C (dec.), 10 nM and 300 nM.
Regarding `O=C(CCC(NS(=O)(=O)c1ccc(-c2ccc(N3CCCC3)cc2)cc1)C(=O)O)Nc1ccccc1` (racemic) [Example 76], the melting point is 234 to 236 °C (dec.). In addition, in series [1], the IC50 is 3 nM. This compound yielded a half-inhibitory concentration (IC50) against stromelysin (MMP-3) of 5 nM.
As to `O=C(O)[C@@H](Cc1c[nH]c2ccccc12)NS(=O)(=O)c1ccc(-n2nccn2)cc1` [Example 68], the melting point was in the range of 131 to 134 °C. Moreover, the IC50 in series [1] was found to be 100 nM. The same compound gave an IC50 on stromelysin (MMP-3) of 400 nM.
Regarding `O=C(O)CC[C@@H](NS(=O)(=O)c1ccc(-c2ccccc2)cc1)C(=O)O` [Example 61], the melting point was 155 to 158 °C. Besides, the IC50 in series [1] came out at 20 nM. In addition, at stromelysin (MMP-3), 400 nM corresponded to half-maximal inhibition (IC50).
Compound `O=C(CC[C@H](NS(=O)(=O)c1ccc(-c2ccccc2)cc1)C(=O)O)N[C@@H](Cc1ccccc1)C(=O)O` [Example 92] gave a melting point of 123.5 to 124.5 °C. In series [1], the IC50 turned out to be 4 nM. It took 30 nM to reach half-maximal inhibition on stromelysin (MMP-3) (IC50).
Compound `O=C(CC[C@H](NS(=O)(=O)c1ccc(-c2ccccc2)cc1)C(=O)O)Nc1ccccc1` [Example 79] had a melting point of 234.5 to 235.5 °C. Besides, in series [1], the IC50 worked out at 4 nM. The compound also gave a half-inhibitory concentration (IC50) at stromelysin (MMP-3) of 20 nM.
Turning to `O=C(O)C1CCCCN1S(=O)(=O)c1ccc(-c2ccccc2)cc1` (racemic) [Example 55], the melting point was 174.5 to 175.5 °C. Further, in series [1], the IC50 came out at 40 nM. In addition, the IC50 at stromelysin (MMP-3) came out at 800 nM.
Turning to `O=C(O)[C@H](Cc1cn(S(=O)(=O)c2ccc(Oc3ccccc3)cc2)cn1)NS(=O)(=O)c1ccc(Oc2ccccc2)cc1` [Example 31], the melting point lay within 120 to 122 °C. For the same compound, the 50% inhibitory concentration (IC50) in series [1] amounted to 50 nM. In addition, the IC50 against stromelysin (MMP-3) was determined as 1000 nM.
Consider `NC(=O)CC[C@H](NC(=O)CC[C@H](NS(=O)(=O)c1ccc(-c2ccccc2)cc1)C(=O)O)C(=O)O` [Example 95], for which the melting point was > 110 °C (dec.). Moreover, in series [1], the IC50 was determined as 20 nM. Besides, half-maximal inhibition at stromelysin (MMP-3) (IC50) was put at 300 nM.
As to `COc1ccc(NC(=O)CC[C@H](NS(=O)(=O)c2ccc(-c3ccccc3)cc2)C(=O)O)cc1` [Example 89], the melting point lay within 219 to 221 °C. The IC50 in series [1] came out at 20 nM. Moreover, at stromelysin (MMP-3), the IC50 amounted to 300 nM.
